One assay has as its system nitrification. Nature of the assay: Inhibition of nitrification in soil (48 well plate, ammonium sulfate, colour reaction read at 540 nm). As to conditions: dose of 5±1 ppm; field soil; up to 72 hrs at room temperature; compared to control (DMSO only). The method, then:
The compounds of the invention have been tested as follows in terms of the inhibition of nitrification:
Soil was sampled fresh from a field (e.g. Limburgerhof), dried and sieved through a 500 μm sieve. Approximately 200 mg of soil were placed into each well of a 48 well plate. […] 6 μmol ammonium sulfate was added per well as well as 4.8 mg NaClO3.
Subsequently, the samples were incubated at room temperature for up to 72 hrs. After the incubation period 64 mg KCl were added and mixed. 25 μl of the supernatant were placed into a fresh plate and 260 μl of a color reaction solution (from Merck Nr 1.11799.0100) were added. Measurements were taken with a Tecan plate Reader at 540 nm wavelength.
Inhibition is calculated as x=% activity compared to control, and converted to 100-x to give the value of inhibition, rather than activity.
In the case of `C#CCOCc1ccc(OCC)cc1` [Compound 1-26], the “IN (best inhibition value obtained for a compound)” value is on record as 69%.

In the case of `C#CCOCc1ccccc1` [Compound 1-28], the “IN (best inhibition value obtained for a compound)” value stood at 88%.

For the compound `C#CCOCc1ccc(C)cc1` [Compound 1-29], the “IN (best inhibition value obtained for a compound)” value is 37%.

For the compound `C#CCOCc1ccc(C(=O)N(C)C)cc1` [Compound 1-33], the “IN (best inhibition value obtained for a compound)” value was 24%.

Consider `C#CCOCc1ccc(I)cc1` [Compound 1-32], for which the “IN (best inhibition value obtained for a compound)” value is reported as 53%.

Take `C#CCOCc1ccc(COCC#C)cc1` [Compound 1-23]: the “IN (best inhibition value obtained for a compound)” value is reported as 18%.

For `C#CCOCc1ccc(F)cc1` [Compound 1-25], the “IN (best inhibition value obtained for a compound)” value came to 87%.

As for `C#CCOCc1ccc(OCCC)cc1` [Compound 1-27], the “IN (best inhibition value obtained for a compound)” value worked out at 59%.

`C#CCOCc1ccc(C#N)cc1` [Compound 1-30]: the “IN (best inhibition value obtained for a compound)” value is reported as 25%.

As for `C#CCOCc1ccc(OC(C)C)cc1` [Compound 1-24], the “IN (best inhibition value obtained for a compound)” value worked out at 18%.

Take `C#CCOCc1ccc(C(=O)O)cc1` [Compound 1-31]: the “IN (best inhibition value obtained for a compound)” value stood at 18%.

The assay is the same for the next values; noted with them: dose of 10 ppm; field soil; up to 72 hrs at room temperature; compared to control (DMSO only).
Take `C#CCOCc1ccc(Br)cc1` [Compound 1-2]: the “IN (best inhibition value obtained for a compound)” value amounted to 48%.

For `C#CCOCc1ccc(Cl)cc1C` [Compound 1-14], the “IN (best inhibition value obtained for a compound)” value was 56%.

Turning to `C#CCOC(Cn1cncn1)c1ccc(Oc2ccc(Cl)cc2)cc1` (stereo not shown) [Compound 1-18], the “IN (best inhibition value obtained for a compound)” value is recorded as 10%.

On to `C#CCOCc1ccc(Oc2ccc(F)cc2)cc1` [Compound 1-4], for which the “IN (best inhibition value obtained for a compound)” value turned out to be 15%.

As for `C#CCOC(Cn1cncn1)c1ccc(F)cc1` (stereo not shown) [Compound 1-13], the “IN (best inhibition value obtained for a compound)” value is on record as 10%.

On to `C#CCOC(Cn1cncn1)c1ccc(Oc2ccc(Cl)cc2)cc1C(F)(F)F` (stereo not shown) [Compound 1-7], for which the “IN (best inhibition value obtained for a compound)” value came out at 11%.

As for `C#CCOCc1ccccc1F` [Compound 1-5], the “IN (best inhibition value obtained for a compound)” value is given as 27%.

Regarding `C#CCOCc1ccc(OC)c(OC)c1` [Compound 1-1], the “IN (best inhibition value obtained for a compound)” value worked out at 15%.

Turning to `C#CCOCc1ccc(OC)cc1` [Compound 1-8], the “IN (best inhibition value obtained for a compound)” value was 57%.

On to `C#CCOCc1ccc(Oc2ccc(Cl)cc2)cc1` [Compound 1-16], for which the “IN (best inhibition value obtained for a compound)” value turned out to be 11%.

Turning to `C#CCOC(c1ccccc1)C(CCCC)n1cncn1` (stereo not shown) [Compound 1-21], the “IN (best inhibition value obtained for a compound)” value stood at 20%.

With `C#CCOC(Cn1cncn1)c1cc(OC)c(OC)c(OC)c1` (stereo not shown) [Compound 1-20], the “IN (best inhibition value obtained for a compound)” value was determined as 10%.

In the case of `C#CCOC(Cn1cncn1)c1ccc(Oc2ccc(Cl)cc2)cc1Cl` (stereo not shown) [Compound 1-6], the “IN (best inhibition value obtained for a compound)” value was 10%.

For `C#CCOCc1ccc(Cl)cc1` [Compound 1-15], the “IN (best inhibition value obtained for a compound)” value is reported as 58%.

On to `C#CCOCc1ccc(Cl)cc1Cl` [Compound 1-10], for which the “IN (best inhibition value obtained for a compound)” value was determined as 14%.

As to `C#CCOC(Cn1cncn1)c1ccc(Br)cc1` (stereo not shown) [Compound 1-12], the “IN (best inhibition value obtained for a compound)” value is given as 15%.

In the case of `C#CCOCc1cccc(OC)c1` [Compound 1-9], the “IN (best inhibition value obtained for a compound)” value amounted to 20%.

`C#CCOCc1ccc(Oc2ccccc2)cc1` [Compound 1-3]: the “IN (best inhibition value obtained for a compound)” value is given as 11%.

As to `C#CCOC(CC(n1cncn1)C(C)(C)C)c1ccc(Cl)cc1Cl` (stereo not shown) [Compound 1-22], the “IN (best inhibition value obtained for a compound)” value is reported as 11%.

The assay is the same for the next values; noted with them: dose of 10 ppm; same conditions as Example 1.1.
As for `C#Cc1ccccc1` [Phenylacetylene, phenylacetylene, reference compound], the “IN (inhibition value), comparative example” value was 7%.
